{"source": "patent US12427134B2", "about": "“Methods of reducing the risk of cardiovascular events in a subject with atrial fibrillation and/or atrial flutter” (priority 2019, dated 2025)", "system": "hypertriglyceridemic patients with cardiovascular disease or at high risk for cardiovascular disease", "assay": "REDUCE-IT: electrocardiograms, vital signs (blood pressure, pulse), weight and waist circumference", "assay_type": "in vivo, human", "details": "for QTc Interval, mean change from baseline / Systolic Blood Pressure, mean change from baseline / Diastolic Blood Pressure, mean change from baseline / ECG Heart Rate, mean change from baseline / Heart Rate (vital sign), mean change from baseline / PR Interval, mean change from baseline: Safety population", "procedure": "Blood pressure was measured using a standardized process: • Patient sat for ≥5 minutes with feet flat on the floor and measurement arm supported so that the midpoint of the manometer cuff was at heart level; and • Used a mercury sphygmomanometer or automatic blood pressure device with an appropriately sized cuff with the bladder centered over the brachial artery.\nBlood pressure was recorded to the nearest 2 mmHg mark on the manometer or to the nearest whole number on an automatic device. A blood pressure reading was repeated 1 to 2 minutes later, and the second reading recorded to the nearest 2 mmHg mark.\nHeight, Weight and Body Mass Index: Height and weight were measured. Measurement of weight was performed with the patient dressed in indoor clothing, with shoes removed, and bladder empty.\nWaist Circumference: Waist circumference was measured with a tape measure, as follows: Start at the top of the hip bone then bring the tape measure all the way around—level with the navel. Make sure the tape measure is snug, but without compressing the skin, and that it is parallel with the floor. Patients should not have held their breath while measuring waist circumference.\n12-Lead Electrocardiogram (ECG): ECGs (standard 12-lead) were obtained annually. Site personnel made every attempt to perform a patient's ECG using the same equipment at each visit. ECGs were reviewed by the site for the detection of silent MI. Silent MIs were sent for event adjudication. All post-randomization ECGs (protocol-specified and other) were sent to the CEC for evaluation of silent MI. The 12-lead ECG parameters included Heart Rate (bpm), PR Interval (msec), QRS Interval (msec), QT Interval (msec), and QTc Interval (msec) were measured, and Overall Interpretation and Silent MI (Yes/No) were summarized for all patients at Screening (Visit 1), Randomization visit (Visit 2; Day 0) and all other follow-up visits including the last visit of the study.\nA treatment-emergent PCS high value at any time was defined as a change from a value less than or equal to the defined PCS value at baseline to a PCS high value at any post-baseline measurement. A treatment-emergent PCS low value at any time was defined as a change from a value greater than or equal to the lower PCS value at baseline to a PCS low value at any post-baseline measurement.\nAs an additional exploratory analysis, the relationship between post-baseline biomarker values and treatment effects with the primary and key secondary endpoints were assessed by adding biomarker values (for example, at 4 months, or at 1 year, etc.) as time-dependent covariates in the Cox proportional hazards model. Diagnostic plots for the proportional hazard's assumption was evaluated. Weight was measured at the screening visit and at all follow-up visits, including the last visit of the study. Waist circumference was measured at the randomization visit (Visit 2; Day 0), Visit 5 (Day 720) and the last visit of the study. Descriptive statistics were presented by visit and treatment group for baseline, post-treatment change from baseline, and the percent change from baseline. Analysis methods for repeated measurements were used to compare percent change from baseline between treatments.", "key": {"[1]": {"details": "any post-baseline visit, 3683 patients with data"}, "[2]": {"details": "any post-baseline visit, 3823 patients with data"}, "[3]": {"details": "any post-baseline visit, 3834 patients with data"}, "[4]": {"details": "any post-baseline visit, 3983 patients with data"}}}
{"smiles": "CC/C=C\\C/C=C\\C/C=C\\C/C=C\\C/C=C\\CCCC(=O)OCC", "note": "[AMR101, eicosapentaenoic acid ethyl ester]", "values": [{"measurement": "QTc Interval, mean change from baseline", "setting": "Visit 6", "value": 3.7, "unit": "ms"}, {"measurement": "Systolic Blood Pressure, mean change from baseline", "setting": "Visit 6", "value": 0.9, "unit": "mmHg"}, {"measurement": "Diastolic Blood Pressure, mean change from baseline", "setting": "Visit 7", "value": "−0.5", "unit": "mmHg"}, {"measurement": "ECG Heart Rate, mean change from baseline", "setting": "Visit 7", "value": 1.8, "unit": "beats/minute"}, {"measurement": "Heart Rate (vital sign), mean change from baseline", "setting": "Visit 7", "value": 1.5, "unit": "beats/minute"}, {"measurement": "PR Interval, mean change from baseline", "setting": "Visit 7", "value": 1.4, "unit": "ms"}, {"measurement": "QTc Interval, mean change from baseline", "setting": "Visit 7", "value": 5.0, "unit": "ms"}, {"measurement": "Systolic Blood Pressure, mean change from baseline", "setting": "Visit 7", "value": 0.8, "unit": "mmHg"}, {"measurement": "Diastolic Blood Pressure, mean change from baseline", "setting": "Visit 8", "value": "−1.0", "unit": "mmHg"}, {"measurement": "ECG Heart Rate, mean change from baseline", "setting": "Visit 8", "value": 1.4, "unit": "beats/minute"}, {"measurement": "Heart Rate (vital sign), mean change from baseline", "setting": "Visit 8", "value": 0.9, "unit": "beats/minute"}, {"measurement": "PR Interval, mean change from baseline", "setting": "Visit 8", "value": 2.2, "unit": "ms"}, {"measurement": "QTc Interval, mean change from baseline", "setting": "Visit 8", "value": 6.6, "unit": "ms"}, {"measurement": "Systolic Blood Pressure, mean change from baseline", "setting": "Visit 8", "value": 0.4, "unit": "mmHg"}, {"measurement": "PR Interval, mean change from baseline", "setting": "Visit 9 (n = 5)", "value": -21.2, "unit": "ms"}, {"measurement": "ECG Heart Rate, mean change from baseline", "setting": "Visit 9 (n = 7)", "value": 7.6, "unit": "beats/minute"}, {"measurement": "Diastolic Blood Pressure, mean change from baseline", "setting": "Visit 9 (n = 8)", "value": "−2.7", "unit": "mmHg"}, {"measurement": "Heart Rate (vital sign), mean change from baseline", "setting": "Visit 9 (n = 8)", "value": 2.8, "unit": "beats/minute"}, {"measurement": "Systolic Blood Pressure, mean change from baseline", "setting": "Visit 9 (n = 8)", "value": "−5.4", "unit": "mmHg"}, {"measurement": "PCS ECG finding: PR Interval <120 msec, % patients", "setting": "[1]", "value": "(7.1) %"}, {"measurement": "PCS ECG finding: PR Interval <120 msec, n patients", "setting": "[1]", "value": 261}, {"measurement": "PCS ECG finding: PR Interval >120 msec and increase >20 msec from baseline, % patients", "setting": "[1]", "value": "(24.8) %"}, {"measurement": "PCS ECG finding: PR Interval >120 msec and increase >20 msec from baseline, n patients", "setting": "[1]", "value": 913}, {"measurement": "PCS ECG finding: QTc Interval >500 msec, % patients", "setting": "[2]", "value": "(5.4) %"}, {"measurement": "PCS ECG finding: QTc Interval >500 msec, n patients", "setting": "[2]", "value": 208}, {"measurement": "PCS ECG finding: QRS Interval >110 msec, % patients", "setting": "[3]", "value": "(29.3) %"}, {"measurement": "PCS ECG finding: QRS Interval >110 msec, n patients", "setting": "[3]", "value": 1124}, {"measurement": "Diastolic Blood Pressure Decrease of ≥10 mmHg, % patients", "setting": "[4]", "value": "(39.4) %"}, {"measurement": "Diastolic Blood Pressure Decrease of ≥10 mmHg, n patients", "setting": "[4]", "value": 1569}, {"measurement": "Diastolic Blood Pressure Increase of ≥10 mmHg, % patients", "setting": "[4]", "value": "(36.2) %"}, {"measurement": "Diastolic Blood Pressure Increase of ≥10 mmHg, n patients", "setting": "[4]", "value": 1442}, {"measurement": "Diastolic Blood Pressure PCS High ≥100 mmHg and increase of ≥10 mmHg, % patients", "setting": "[4]", "value": "(4.5) %"}, {"measurement": "Diastolic Blood Pressure PCS High ≥100 mmHg and increase of ≥10 mmHg, n patients", "setting": "[4]", "value": 179}, {"measurement": "Diastolic Blood Pressure PCS High ≥100 mmHg, % patients", "setting": "[4]", "value": "(5.6) %"}, {"measurement": "Diastolic Blood Pressure PCS High ≥100 mmHg, n patients", "setting": "[4]", "value": 223}, {"measurement": "Diastolic Blood Pressure PCS Low ≤50 mmHg and decrease of ≥10 mmHg, % patients", "setting": "[4]", "value": "(0.9) %"}, {"measurement": "Diastolic Blood Pressure PCS Low ≤50 mmHg and decrease of ≥10 mmHg, n patients", "setting": "[4]", "value": 35}, {"measurement": "Diastolic Blood Pressure PCS Low ≤50 mmHg, % patients", "setting": "[4]", "value": "(1.1) %"}, {"measurement": "Diastolic Blood Pressure PCS Low ≤50 mmHg, n patients", "setting": "[4]", "value": 42}, {"measurement": "Pulse Decrease of ≥15 beats/min, % patients", "setting": "[4]", "value": "(14.1) %"}, {"measurement": "Pulse Decrease of ≥15 beats/min, n patients", "setting": "[4]", "value": 562}, {"measurement": "Pulse Increase of ≥15 beats/min, % patients", "setting": "[4]", "value": "(27.4) %"}, {"measurement": "Pulse Increase of ≥15 beats/min, n patients", "setting": "[4]", "value": 1092}, {"measurement": "Pulse PCS High ≥90 beats/min and increase of ≥15 beats/min, % patients", "setting": "[4]", "value": "(9.3) %"}, {"measurement": "Pulse PCS High ≥90 beats/min and increase of ≥15 beats/min, n patients", "setting": "[4]", "value": 370}, {"measurement": "Pulse PCS High ≥90 beats/min, % patients", "setting": "[4]", "value": "(13.8) %"}, {"measurement": "Pulse PCS High ≥90 beats/min, n patients", "setting": "[4]", "value": 551}, {"measurement": "Pulse PCS Low ≤50 beats/min and decrease of ≥15 beats/min, % patients", "setting": "[4]", "value": "(1.7) %"}, {"measurement": "Pulse PCS Low ≤50 beats/min and decrease of ≥15 beats/min, n patients", "setting": "[4]", "value": 68}, {"measurement": "Pulse PCS Low ≤50 beats/min, % patients", "setting": "[4]", "value": "(7.4) %"}, {"measurement": "Pulse PCS Low ≤50 beats/min, n patients", "setting": "[4]", "value": 293}, {"measurement": "Systolic Blood Pressure Decrease of ≥20 mmHg, % patients", "setting": "[4]", "value": "(25.3) %"}, {"measurement": "Systolic Blood Pressure Decrease of ≥20 mmHg, n patients", "setting": "[4]", "value": 1009}, {"measurement": "Systolic Blood Pressure Increase of ≥20 mmHg, % patients", "setting": "[4]", "value": "(29.2) %"}, {"measurement": "Systolic Blood Pressure Increase of ≥20 mmHg, n patients", "setting": "[4]", "value": 1163}, {"measurement": "Systolic Blood Pressure PCS High ≥160 mmHg and increase of ≥20 mmHg, % patients", "setting": "[4]", "value": "(11.3) %"}, {"measurement": "Systolic Blood Pressure PCS High ≥160 mmHg and increase of ≥20 mmHg, n patients", "setting": "[4]", "value": 450}, {"measurement": "Systolic Blood Pressure PCS High ≥160 mmHg, % patients", "setting": "[4]", "value": "(18.0) %"}, {"measurement": "Systolic Blood Pressure PCS High ≥160 mmHg, n patients", "setting": "[4]", "value": 715}, {"measurement": "Systolic Blood Pressure PCS Low ≤90 mmHg and decrease of ≥20 mmHg, % patients", "setting": "[4]", "value": "(0.7) %"}, {"measurement": "Systolic Blood Pressure PCS Low ≤90 mmHg and decrease of ≥20 mmHg, n patients", "setting": "[4]", "value": 27}, {"measurement": "Systolic Blood Pressure PCS Low ≤90 mmHg, % patients", "setting": "[4]", "value": "(1.0) %"}, {"measurement": "Systolic Blood Pressure PCS Low ≤90 mmHg, n patients", "setting": "[4]", "value": 40}]}
